Test results: article PMC5427923, “A novel CCR2 antagonist inhibits atherogenesis in apoE deficient mice by achieving high receptor occupancy” (Scientific Reports, 2017)
Entries after “also recorded” stand apart in the source; their conditions may differ.

Columns and labels:
[1] = 15a plasma levels by LC-MS after a single intraperitoneal dose; type: in vivo; details: apoE−/−, mouse
Description: To measure plasma concentrations of 15a over time, Western type diet fed mice were injected with 5 mg/kg 15a, after which blood samples were taken at fixed time points (1, 2, 6 and 24 hours after injection). Blood samples were processed as described below under “Measurement of 15a plasma levels”. The final dose of 5 mg/kg/day was based on a pilot study in which two different doses (1.5 and 5 mg/kg/day) were tested using leucocyte migration towards the peritoneal cavity as a read-out. […] In addition, the dose of 5 mg/kg was also based on a previous study with TAK-779[38], in which a dose of 5 mg/kg was used.
Blood plasma from mice was analyzed by LC-MS to determine 15a plasma levels. 20 μL of internal standard (compound 15b, a diastereomer of 15a[24]) and 20 μL of solvent C (20% (v/v) Acetonitrile and 0.1% (v/v) TFA in LC-MS water) were first mixed with 20 µL of plasma. A calibration curve from 2 to 200 ng/ml of 15a was prepared using solvent C. Calibration samples were prepared as normal samples using blanc plasma and calibration solution instead of solvent C. Aliquots of 40 µL of 1% TFA were added to the samples and mixed well. After addition of 900 µL of ethyl acetate, mixing was performed for 5 minutes at a titramax plate shaker (Heidolph, Swabach, Germany). Samples were then centrifuged at 15,000 × g during 10 minutes and 800 µL of the supernatant was evaporated in a vacuum centrifuge (Labconco, Kansas City, Missouri). The sample was reconstituted by mixing with 10 µL of acetonitrile, followed by addition of 40 µL solvent C. After a second centrifugation at 15,000 × g for 10 minutes, 35 µL of supernatant were transferred to LC vials and inserted into the LC-MS system consisting of a Nexera X2 UHPLC system with two UHPLC pumps (Shimadzu, ’s Hertogenbosch, The Netherlands) connected to a TSQ Quantum Ultra (Thermo Fisher Scientific, Breda, The Netherlands). Separation of 15a was accomplished in a Gemini 3 µm C18 reversed phase HPLC column (50 × 4.6 mm) (Phenomenex, Amstelveen, The Netherlands) using an injection volume of 10 µL and a flow rate of 0.6 ml/min at 40 °C. After elution of 15a with a 9:11 (v/v) ratio of acetonitrile in water with 0.1% TFA, the column was flushed with a gradient up to 90% acetonitrile with 0.1% TFA. The column was re-equilibrated with a 9:11 (v/v) ratio of acetonitrile in water with 0.1% TFA before the next injection. […] The collision energy used was 26 V at a skimmer offset of 16 V, the scan peak width was 0.5 m/z, while the scan time was 0.3 seconds. Sheath gas and auxiliary gas pressure (Nitrogen) were set to 60 and 5 respectively (arbitrary units), and the collision gas Argon was set at 1.0 atm.
To determine the maximal value of k off that would prolong the receptor occupancy even further, we used equation (2)[28], in which BF represents the percentage of target occupancy divided by 100 and t 1/2el represents the plasma elimination half-life (0.693/k el). In this case we set BF to 0.90, as 90% represents the minimum value of target occupancy to achieve efficacy. To obtain the elimination rate constant of compound 15a, a linear regression analysis of the natural logarithm of the concentrations versus time was performed, and the slope coefficient was used as the elimination rate constant k el.2 koff<0.693⋅(1−BF)/t1/2el

[2] = system: circulating CCR2+ monocytes; test: Circulating blood cells (flow cytometry, hematology analyzer) in 15a treated apoE−/− mice; type: in vivo, mouse
Description: To determine the effect of the CCR2 antagonist on atherosclerotic lesion development, mice were fed a Western type diet, containing 0.25% cholesterol and 15% cocoabutter (SDS, Sussex, UK) throughout the experiment starting two week before surgery. Carotid artery plaque formation was induced by perivascular collar placement as described previously[46] and from the time of surgery, the mice received daily intraperitoneal injections containing 15a (5 mg/kg/day) or vehicle control (n = 9–10 per group). During the experiment, total body weight and weight gain were measured. Serum total cholesterol levels were determined using an enzymatic colorimetric assay according to manufacturer’s protocol (Roche Diagnostics). Precipath (standardized serum; Boehringer Mannheim, Germany) was used as an internal standard. Plasma cytokine levels were measured by ELISA according to manufacturer’s protocol (BD Biosciences). Blood was collected weekly via tail cut. Total cell count and cellular differentiation patterns in blood were analyzed using an automated XT-2000iV veterinary hematology analyzer (Sysmex Europe GMBH, Norderstedt, Germany). After erythrocyte lysis, blood leukocyte suspensions were stained for surface markers, after which their expression was determined by FACS analysis (FACS Canto, BD Biosciences). After 4 weeks of lesion development, the animals were anaesthetized and blood was collected. After in situ perfusion through the left cardiac chamber, the carotid arteries and hearts were harvested.

[3] = 4 weeks of treatment, 18 h after last injection

`CC(C)[C@]1(C(=O)N2CCc3ccc(C(F)(F)F)cc3C2)CC[C@@H](N[C@@H]2CCc3cc(Br)ccc32)C1` [15a, ((1S,3R)-3-(((R)-5-bromo-2,3-dihydro-1H-inden-1-yl)amino)-1-isopropylcyclopentyl)(7-(trifluoromethyl)-3,4-dihydroisoquinolin-2(1H)-yl)methanone] gave a k el ([1]; intraperitoneal, 5 mg/kg, slope of the linear regression of the pharmacokinetic data, read-out: k el (elimination rate constant) (converted)) of 1.8e-05 s⁻¹, a concentration at 1 h ([1]; ip, single intraperitoneal dose of 5 mg/kg, mice, range of individual mice, read-out: plasma levels 1 h after administration) of 0.012 to 1.46 µg/mL and a concentration at 2 h ([1]; ip, single intraperitoneal dose of 5 mg/kg, mice, range of individual mice, read-out: plasma levels 2 h after dosing) of 0.613 to 1.05 µg/mL. The concentration at 6 h ([1]; ip, single intraperitoneal dose of 5 mg/kg, mice, range of individual mice, read-out: plasma levels 6 h after administration) was 0.182 to 1.02 µg/mL, the concentration at 24 h ([1]; ip, single intraperitoneal dose of 5 mg/kg, mice, range of individual mice, read-out: plasma levels 24 h after administration) was 0.032 to 0.331 µg/mL and the half-life ([1]; ip, single intraperitoneal dose of 5 mg/kg, mice, read-out: elimination half-life (converted)) was 10.7 h. The “number of circulating CCR2+ monocytes” value ([2]; 5 mg/kg/day i.p., 4 weeks, 18 hour after the last injection, controls 14.9 ± 3.2) was 4.5 ± 1.0 *10^3 cells/mL, the “percentage of circulating CCR2+ monocytes (CD11b+Ly6Glow cells)” value ([2]; 5 mg/kg/day i.p., two weeks of treatment, 2 hours after injection, controls 8.7 ± 1.2%) was 1.8 ± 0.2% and the “increase in the amount of CD11b+Ly6ClowCX3CR1+ monocytes” value [2, 3] was 1.5 fold. The “ratio of patrolling CD11b+Ly6ClowCX3CR1+ versus inflammatory CD11b+Ly6ChighCCR2+ monocytes in blood” value [2, 3] was “increased”, the “reduction in circulating CCR2+ monocyte numbers” value ([2]; at 18 hours after treatment) was over 60% and the “circulating total white blood cell (WBCs) count” value ([2]; at the time of sacrifice) was “No differences”. The total lymphocyte numbers ([2]; at the time of sacrifice) was “No differences; also recorded: remained unaffected”, the total neutrophil numbers ([2]; at the time of sacrifice) was “No differences; also recorded: remained unaffected” and the “total number of (circulating) monocytes” value ([2]; at the time of sacrifice) was “significantly reduced”. For the same compound, the “bone marrow monocyte subpopulations” value ([2]; data not shown) was “did not observe any effects”, the “number of neutrophils, CD19+ B cells, CD4+ or CD8+ T cells in blood or spleen” value ([2]; flow cytometry, 18 hour after the last injection, data not shown) was “did not affect” and the “splenic or circulating Tregs” value ([2]; flow cytometry, data not shown) was “nor did we detect any effects”. The “percentage of circulating CCR5+ monocytes” value ([2]; treated and untreated mice) was “did not observe any change”.
